# Measurements as given in patent publication US20250172577A1, “METHODS FOR THE DETECTION AND TREATMENT OF CANCER” (Board of Regents, The University of Texas System, priority 2022, published 2025).
# Like-named read-outs stand apart in the source and are kept apart here.
# Tests used:
# [1] = target: T1, UGT8 (Mus musculus, UniProt Q64676); conditions: cited from earlier work
# T1 construct: host or cells: mouse (in vivo, endogenous enzyme)
# T1 sequence (Q64676 21-541): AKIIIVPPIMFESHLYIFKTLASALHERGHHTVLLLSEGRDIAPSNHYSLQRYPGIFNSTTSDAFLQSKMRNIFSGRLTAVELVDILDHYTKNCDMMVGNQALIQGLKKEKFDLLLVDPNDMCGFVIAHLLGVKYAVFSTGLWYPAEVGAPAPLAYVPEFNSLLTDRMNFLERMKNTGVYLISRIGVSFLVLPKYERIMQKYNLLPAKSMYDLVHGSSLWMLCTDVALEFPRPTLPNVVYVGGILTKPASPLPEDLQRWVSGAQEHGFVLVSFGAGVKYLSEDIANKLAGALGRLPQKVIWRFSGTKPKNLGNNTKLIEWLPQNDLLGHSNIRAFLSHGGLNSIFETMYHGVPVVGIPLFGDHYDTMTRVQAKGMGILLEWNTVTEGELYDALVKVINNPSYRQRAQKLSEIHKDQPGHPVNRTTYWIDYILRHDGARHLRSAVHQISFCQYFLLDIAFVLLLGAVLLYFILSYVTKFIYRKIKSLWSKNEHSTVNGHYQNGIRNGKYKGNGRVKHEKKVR
# [2] = system: LGKC 4301 cells; experiment: In vitro toxicity assay (MTS assay), mouse IPMN cell line LGKC 4301; format: cell-based; conditions: vs vehicle control
# Protocol: (§1) Experiments were performed in technical triplicates. Statistical significance was determined by 2-sided Student T-test. […] UGT8 inhibitor UGT8-IN-1 or vehicle control (saline) was orally administrated every other day (3 mg/kg) from day-8 post cancer cell implantation for 2 weeks. Tumor volume was measured every 3 days. Statistical significance was determined by 2-way repeated measures ANOVA and treatment factor 2-sided p-value reported.
# (§2) In vitro toxicity assays (MTS assays) were performed using three independent mouse IPMN cell lines (LGKC 4301, LGKC 4838, and LGKC 4861). Briefly, each cell line was treated with either vehicle control or the UGT8 inhibitors UGT8-IN-1 or zoledronic acid. Experiments were performed in technical triplicates. Statistical significance was determined by 2-sided Student T-test.
# [3] = system: mouse IPMN cell line LGKC 4861; experiment: Subcutaneous LGKC 4861 implant in athymic nude mice, tumor volume; format: in vivo; conditions: 3 mg/kg orally every other day from day 8 for 2 weeks, vs vehicle (saline)
# [4] = In vitro toxicity assay (MTS assay), mouse IPMN cell line LGKC 4861; format: cell-based
# Protocol: as §1, §2
# [5] = system: LGKC 4838 cells; experiment: In vitro toxicity assay (MTS assay), mouse IPMN cell line LGKC 4838; format: cell-based; conditions: vs vehicle control
# Protocol: as §1, §2
Structure (SMILES),inhibition of incorporation of 13C-Gal into GalCer and sulfatide ([1]; 3 mg/kg) [%],effective dose (ED)50 ([1]; incorporation of 13C-Gal into GalCer and sulfatide) [mg/kg],effect on cell viability (comparison of the two UGT8 inhibitors) [2],tumor volume [3],cytotoxicity [4] [%],reduction in cell viability (comparison of the two UGT8 inhibitors) [5],"cytotoxicity ([4]; LGKC 4861 mouse IPMN cells, LGKC 4861 cells, MTS assay, vs vehicle control, read-out: reduction in cell viability) [%]"
"CNC(=O)c1csc2c(C(F)(F)F)cc(N3CCC(OC(=O)NC(C)COC(F)(F)F)CC3)nc12 (stereo in doubt) [UGT8-IN-1, [1-[3-(methylcarbamoyl)-7-(trifluoromethyl)thieno[3,2-b]pyridin-5-yl]piperidin-4-yl]N-[(2S)-1-(trifluoromethoxy)propan-2-yl]carbamate]",> 90,1,slightly more effective,lower tumor volume compared to vehicle,~80,,
"O=P(O)(O)C(O)(Cn1ccnc1)P(=O)(O)O [zoledronic acid, Zoledronic acid]",,,performed similarly,,,greater reduction in cell viability than UGT8-IN-1,~55
